Measured values as given in US4242504A, “3"-Acylated macrolide antibiotics” (Toyo Jozo Kabushiki Kaisha, priority 1978, dated 1980).
In brackets after ≈: the same amount, converted by molar mass.

Assays:
Staph.aureus MS353 C36 = assay: Minimum Inhibitory Concentration (MIC), broth dilution method; format: cell-based; conditions: Staphylococcus aureus, MS353C36, Staph.aureus MS353 C36, inoculum size 10^6 /ml
Text: (§1) Minimum Inhibitory Concentration (MIC) μg/ml
(§2) clinical isolates (macrolide resistant Agroup strains) inoculum size
(§3) 10^6 /ml, broth dilution method.

Staph.aureus MS353 = assay: as above; format: cell-based; conditions: Staphylococcus aureus, inoculum size 10^6 /ml
Text: as §1, §2, §3

Staph. aureus 0116 = assay: as above; format: cell-based; conditions: inoculum size 10^6 /ml; for MIC: Staphylococcus aureus, 0116, Staph. aureus 0116, macrolide resistant clinical isolate (A group)
Text: as §1
(§4) *Erythromycin, oleandomycin, 16membered macrolide resistant strains of
as §2, §3

Staph.aureus 0119 = assay: as above; format: cell-based; conditions: inoculum size 10^6 /ml; for MIC: Staphylococcus aureus, 0119, Staph.aureus 0119, macrolide resistant clinical isolate (A group)
Text: as §1, §4, §2, §3

Strept.pyogenes 1022 = assay: as above; format: cell-based; conditions: inoculum size 10^6 /ml; for MIC: Streptococcus pyogenes, 1022, Strept.pyogenes 1022, macrolide resistant clinical isolate (A group)
Text: as §1, §4, §2, §3

Staph.aureus MS 353AO = assay: as above; format: cell-based; conditions: macrolide resistant clinical isolate (A group), inoculum size 10^6 /ml; for MIC: Staphylococcus aureus, MS353AO
Text: as §1, §4, §2, §3

Staph.aureus 6538P = assay: as above; format: cell-based; conditions: Staphylococcus aureus, inoculum size 10^6 /ml
Strept.faecalis 1501 = assay: as above; format: cell-based; conditions: for MIC: Enterococcus faecalis, 1501, Strept.faecalis 1501, inoculum size 10^6 /ml
[1] = Potency as compared with standard leucomycin

SMILES	MIC (Staph.aureus MS353 C36) [µg/mL]	MIC (Staph.aureus MS353) [µg/mL]	MIC (Staph. aureus 0116) [µg/mL]	MIC (Staph.aureus 0119) [µg/mL]	MIC (Strept.pyogenes 1022) [µg/mL]	MIC (Staph.aureus MS 353AO) [µg/mL]	MIC (Staph.aureus 6538P) [µg/mL]	MIC (Strept.faecalis 1501) [µg/mL]	Potency [1] [µg/mg]	Minimum Inhibitory Concentration (MIC) (Staph. aureus 0116; Staph. aureus 0116, macrolide resistant clinical isolate (A group)) [µg/mL]	Minimum Inhibitory Concentration (MIC) (Staph.aureus 0119; Staph.aureus 0119, macrolide resistant clinical isolate (A group)) [µg/mL]	Minimum Inhibitory Concentration (MIC) (Strept.pyogenes 1022; Strept.pyogenes 1022, macrolide resistant clinical isolate (A group)) [µg/mL]	Minimum Inhibitory Concentration (MIC) (Staph.aureus MS 353AO) [µg/mL]	Minimum Inhibitory Concentration (MIC) (Strept.faecalis 1501; Strept.faecalis 1501, inoculum size 10^6 /ml) [µg/mL]
CCCC(=O)OC1C(C)OC(OC2C(C)OC(OC3C(CC=O)CC(C)C(OC(C)=O)C=CC=CCC(C)OC(=O)CC(O)C3OC)C(O)C2N(C)C)CC1(C)OC(C)=O (stereo not shown) [9,3"-diacetyl LM-A5, 9,3"-diacetyl leucomycin A5]	0.8 (≈ 0.935 µM)	1.6 (≈ 1.87 µM)	12.5 (≈ 14.6 µM)	100 (≈ 117 µM)	0.4 (≈ 0.467 µM)	> 100	0.8 (≈ 0.935 µM)	1.6 (≈ 1.87 µM)						
COC1C(OC(C)=O)CC(=O)OC(C)CC=CC=CC(O)C(C)CC(CC=O)C1OC1OC(C)C(OC2CC(C)(O)C(OC(=O)CC(C)C)C(C)O2)C(N(C)C)C1O (stereo not shown) [LM-A3, Leucomycin A3, reference compound]	1.6 (≈ 1.93 µM)	3.1 (≈ 3.74 µM)	> 100	> 100	> 100	> 100	3.1 (≈ 3.74 µM)	3.1 (≈ 3.74 µM)						
CCCC(=O)OC1C(C)OC(OC2C(C)OC(OC3C(CC=O)CC(C)C(O)C=CC=CCC(C)OC(=O)CC(O)C3OC)C(O)C2N(C)C)CC1(C)O (stereo not shown) [LM-A5, Leucomycin A5, reference compound]	1.6 (≈ 2.07 µM)	1.6 (≈ 2.07 µM)	> 100	> 100	> 100	> 100	1.6 (≈ 2.07 µM)	1.6 (≈ 2.07 µM)						
CCCC(=O)OC1C(C)OC(OC2C(C)OC(OC3C(CC=O)CC(C)C(O)C=CC=CCC(C)OC(=O)CC(O)C3OC)C(O)C2N(C)C)CC1(C)OC(=O)CCC (stereo not shown) [3"butylyl LM-A5, 3"-butylyl leucomycin A5]	0.4 (≈ 0.475 µM)	1.6 (≈ 1.9 µM)	50 (≈ 59.4 µM)	100 (≈ 119 µM)	0.8 (≈ 0.95 µM)	> 100	0.8 (≈ 0.95 µM)	0.8 (≈ 0.95 µM)						
CCCC(=O)OC1C(C)OC(OC2C(C)OC(OC3C(CC=O)CC(C)C(O)C=CC=CCC(C)OC(=O)CC(O)C3OC)C(O)C2N(C)C)CC1(C)OC(=O)CC (stereo not shown) [3"-propionyl LM-A5, 3"-propionyl leucomycin A5]	0.8 (≈ 0.966 µM)	1.6 (≈ 1.93 µM)	12.5 (≈ 15.1 µM)	> 100	0.4 (≈ 0.483 µM)	> 100	0.8 (≈ 0.966 µM)	0.8 (≈ 0.966 µM)	2850					
CCCC(=O)OC1C(C)OC(OC2C(C)OC(OC3C(CC=O)CC(C)C(O)C=CC=CCC(C)OC(=O)CC(OC(C)=O)C3OC)C(O)C2N(C)C)CC1(C)OC(C)=O (stereo not shown) [3,3"-diacetyl LM-A5, 3,3"-diacetylleucomycin A5]	0.8 (≈ 0.935 µM)	1.6 (≈ 1.87 µM)	50 (≈ 58.4 µM)	> 100	1.6 (≈ 1.87 µM)	> 100	1.6 (≈ 1.87 µM)	1.6 (≈ 1.87 µM)						
CCCC(=O)OC1C(C)OC(OC2C(C)OC(OC3C(CC=O)CC(C)C(O)C=CC=CCC(C)OC(=O)CC(O)C3OC)C(O)C2N(C)C)CC1(C)OC(C)=O (stereo not shown) [3"-acetyl LM-A5, 3"-acetyl leucomycin A5]		1.6 (≈ 1.97 µM)	6.3 (≈ 7.74 µM)	100 (≈ 123 µM)	0.4 (≈ 0.491 µM)	> 100	1.6 (≈ 1.97 µM)	0.8 (≈ 0.983 µM)	2850	12.5	> 100	0.8	100	1.6
CCCC(=O)OC1(C)CC(OC2C(C)OC(OC3C(CC=O)CC(C)C(O)C=CC=CCC(C)OC(=O)CC(O)C3OC)C(O)C2N(C)C)OC(C)C1OC(C)=O (stereo not shown) [4"-acetyl-3"-butylyl LM-A5, 4"-acetyl-3"-butylyl leucomycin V]	0.8 (≈ 0.983 µM)	1.6 (≈ 1.97 µM)	50 (≈ 61.4 µM)	> 100	6.3 (≈ 7.74 µM)	25 (≈ 30.7 µM)	1.6 (≈ 1.97 µM)	0.8 (≈ 0.983 µM)						
